Results reported in patent US20060069123A1, “Substituted dipiperidine CCR2 antagonists” (priority 2004, published 2006).
Like-named read-outs stand apart in the source and are kept apart here.

Tests used:
[1] = system: THP-1 cells; assay: MCP-1 Induced Chemotaxis in THP-1 Cells; type: cell-based; conditions: read-out: Inhibition of MCP-1 Induced Chemotaxis IC50
[2] = system: THP-1 cells
[3] = biological target: T1, CCR2 (Homo sapiens, UniProt P41597); conditions: for Inhibition of MCP-1 Binding, percent inhibition: test concentration of 25 μM, IC50 not obtained
T1 sequence (P41597 1-360 isoform P41597-2): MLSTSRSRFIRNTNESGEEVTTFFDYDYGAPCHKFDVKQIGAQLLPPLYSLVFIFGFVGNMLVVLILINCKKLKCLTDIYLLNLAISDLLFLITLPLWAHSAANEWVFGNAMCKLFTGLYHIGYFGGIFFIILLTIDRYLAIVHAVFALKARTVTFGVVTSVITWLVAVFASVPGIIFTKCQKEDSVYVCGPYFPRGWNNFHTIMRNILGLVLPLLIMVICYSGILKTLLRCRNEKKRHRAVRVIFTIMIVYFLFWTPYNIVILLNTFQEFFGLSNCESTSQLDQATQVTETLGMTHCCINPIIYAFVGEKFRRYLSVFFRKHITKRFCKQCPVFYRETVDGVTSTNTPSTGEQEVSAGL

[4] = Homo sapiens, THP-1, read-out: Inhibition of MCP-1 Induced Calcium Ion Influx IC50
[5] = THP-1 cells, MCP-1 0.01 μg/mL, 3 hours
[6] = read-out: Inhibition of MCP-1 Induced Calcium Ion Influx IC50, THP-1 cells, 0.2 μM MCP-1, FLIPR

SMILES | IC50 [2, 4] [nM] | IC50 [2, 6] [nM] | IC50 [3] [nM] | further results
O=C(/C=C/c1ccc(Cl)c(Cl)c1)N1CCC(C(CO)N2CCC(c3c[nH]c4ncccc34)CC2)CC1 (centres unmarked) [Cpd 208, (2E)-3-(3,4-dichloro-phenyl)-1-(4-{2-hydroxy-1-[4-(1H-pyrrolo[2,3-b]pyridin-3-yl)-piperidin-1-yl]-ethyl}-piperidin-1-yl)-propenone] | – | – | – | IC50 ([1]; Homo sapiens, THP-1, 3 h, THP-1 cells, MCP-1 0.01 μg/mL, 3 hours): 13 nM; IC50 ([2]; Homo sapiens, THP-1, read-out: Inhibition of MCP-1 Induced Calcium Ion Influx IC50, THP-1 cells, 0.2 μM MCP-1, FLIPR): 0.8 nM
COC(=O)C(C1CCN(C(=O)/C=C/c2cc(F)c(F)c(F)c2)CC1)N1CCC(c2c[nH]c3ccccc23)CC1 (centres unmarked) [Cpd 87, [4-(1H-indol-3-yl)-piperidin-1-yl]-{1-[(2E)-3-(3,4,5-trifluoro-phenyl)-acryloyl]-piperidin-4-yl}-acetic acid methyl ester] | 360 | – | – | IC50 ([1]; Homo sapiens, THP-1, 3 h): 1000 nM
COc1ccc2c(C3CCN(C(CO)C4CCN(C(=O)/C=C/c5cc(F)c(F)c(F)c5)CC4)CC3)c[nH]c2c1 (centres unmarked) [Cpd 167, (2E)-1-(4-{2-hydroxy-1-[4-(6-methoxy-1H-indol-3-yl)-piperidin-1-yl]-ethyl}-piperidin-1-yl)-3-(3,4,5-trifluoro-phenyl)-propenone] | – | 30 | – | IC50 [1, 5]: 30 nM
COc1ccc2c(C3CCN(C(CO)C4CCN(C(=O)/C=C/c5cc(F)c(F)c(F)c5)CC4)CC3)c[nH]c2c1 (centres unmarked) [Cpd 132, (2E)-1-(4-{2-hydroxy-1-[4-(6-methoxy-1H-indol-3-yl)-piperidin-1-yl]-ethyl}-piperidin-1-yl)-3-(3,4,5-trifluoro-phenyl)-propenone] | – | 3 | – | IC50 [1, 5]: 70 nM
COc1ccc(C2CCN(C(CO)C3CCN(C(=O)C#Cc4cc(F)c(F)c(F)c4)CC3)CC2)cc1 (centres unmarked) [Cpd 253, 1-(4-{2-hydroxy-1-[4-(4-methoxy-phenyl)-piperidin-1-yl]-ethyl}-piperidin-1-yl)-3-(3,4,5-trifluoro-phenyl)-propynone] | – | 3900 | – | Inhibition of MCP-1 Binding, percent inhibition [3]: 42%
N=C(NC(=O)c1ccc(Cl)c(Cl)c1)N1CCC(C(CO)N2CCC(c3c[nH]c4ccccc34)CC2)CC1 (centres unmarked) [Cpd 128, 3,4-dichloro-N-[(4-{2-hydroxy-1-[4-(1H-indol-3-yl)-piperidin-1-yl]-ethyl}-piperidin-1-yl)-imino-methyl]-benzamide] | 20 | – | 320 | –
O=C(/C=C/c1cccc(C(F)(F)F)c1)N1CCC(C(CO)N2CCC(c3ccncc3)CC2)CC1 (centres unmarked) [Cpd 184, (2E)-1-{4-[2-hydroxy-1-(3,4,5,6-tetrahydro-2H-[4,4′]bipyridinyl-1-yl)-ethyl]-piperidin-1-yl}-3-(3-trifluoromethyl-phenyl)-propenone] | – | – | 1600 | inhibition at 25 µM ([2]; Homo sapiens, THP-1, read-out: Inhibition of MCP-1 Induced Calcium Ion Influx, percent inhibition): 14%
CCNC(=O)NCC(C1CCN(C(=O)/C=C/c2ccc(F)c(Br)c2)CC1)N1CCC(c2c[nH]c3ccccc23)CC1 (centres unmarked) [Cpd 233] | 1800 | – | 660 | –

Further lines, with some results ahead:

IC50 [2, 4] [nM] | IC50 [2, 6] [nM] | IC50 [3] [nM] | SMILES | further results
1900 | – | 370 | CC(=O)NCC(C1CCN(C(=O)/C=C/c2cccc(C(F)(F)F)c2)CC1)N1CCC(c2c[nH]c3ccccc23)CC1 (centres unmarked) [Cpd 218] | –
– | 11000 | – | O=C(/C=C/c1cc(F)cc(F)c1)N1CCC(C(CO)N2CCC(c3nc4cc(Cl)c(Cl)cc4[nH]3)CC2)CC1 (centres unmarked) [Cpd 256, (2E)-1-(4-{1-[4-(5,6-dichloro-1H-benzoimidazol-2-yl)-piperidin-1-yl]-2-hydroxy-ethyl}-piperidin-1-yl)-3-(3,5-difluoro-phenyl)-propenone] | Inhibition of MCP-1 Binding, percent inhibition [3]: 25%
2300 | – | 200 | O=C(/C=C/c1ccc(Cl)cc1)N1CCC(C(CO)N2CCC(c3ccc(Cl)cc3)CC2)CC1 (centres unmarked) [Cpd 258, (2E)-3-(4-chloro-phenyl)-1-(4-{1-[4-(4-chloro-phenyl)-piperidin-1-yl]-2-hydroxy-ethyl}-piperidin-1-yl)-propenone] | –
0.8 | – | 40 | OCC(C1CCN(C(=S)Nc2ccc(Cl)c(Cl)c2)CC1)N1CCC(c2c[nH]c3ccccc23)CC1 (centres unmarked) [Cpd 122, 4-{2-hydroxy-1-[4-(1H-indol-3-yl)-piperidin-1-yl]-ethyl}-piperidine-1-carbothioic acid (3,4-dichloro-phenyl)-amide] | –
400 | – | 2170 | O=C(/C=C/c1ccc(Cl)c(Cl)c1)N1CCC(C(CCl)N2CCC(c3ccc(Cl)cc3)CC2)CC1 (centres unmarked) [Cpd 245] | –
